# Assay results published in patent publication US20050107423A1, “Quinolone antibacterial agents” (priority 2003, published 2005).
# Legend:
# Assay in all cases: Antibacterial assay, microtitration MIC (Test A)
# Assay type in all cases: cell-based
# E. coli EC-2549 = conditions: Escherichia coli, EC2549, Gram Negative Bacteria; strain EC-2549; read-out: Minimum Inhibitory Concentrations E. coli EC-2549
# Protocol: (§1) The compounds of the present invention were tested against an assortment of Gram-negative and Gram-positive organisms using standard microtitration techniques (Cohen et. al., Antimicrob., 1985;28:766; Heifetz, et. al., Antimicrob., 1974;6:124). The results of the evaluation are shown in Tables 1A and B, wherein “-” means no data.
# H. influenzae HI-3542 = conditions: Haemophilus influenzae, HI3542, Gram Negative Bacteria; strain HI-3542; read-out: Minimum Inhibitory Concentrations H. influenzae HI-3542
# Protocol: as §1
# M. catarrhalis BC-3531 = conditions: Moraxella catarrhalis, BC3531, Gram Negative Bacteria; strain BC-3531; read-out: Minimum Inhibitory Concentrations M. catarrhalis BC-3531
# Protocol: as §1
Compound,MIC (E. coli EC-2549) [mg/L],MIC (H. influenzae HI-3542) [mg/L],MIC (M. catarrhalis BC-3531) [mg/L]
O=C(O)c1cn(C2CC2)c2c(Cl)c(N3CCC(C(O)C(F)F)C3)c(F)cc2c1=O (stereo not drawn) [drawing 312],0.06,0.004,0.008
O=C(O)c1cn(C2CC2)c2nc(N3CCC(C(O)C(F)(F)F)C3)c(F)cc2c1=O (stereo not drawn) [drawing 334],0.125,0.016,0.016
COc1c(N2CCC(C3(O)CC3)C2)c(F)cc2c(=O)c(C(=O)O)cn(C3CC3)c12 (stereo not drawn) [drawing 327],0.25,0.03,0.03
CC(=O)O[C@@H]1CC[C@H]2CN(c3c(F)cc4c(=O)c(C(=O)O)cn(-c5nc(N)c(F)cc5F)c4c3Cl)C[C@H]21 [drawing 445],0.5,0.03,0.06
CC(=O)OC[C@@H]1CN(c2c(F)cc3c(=O)c(C(=O)O)cn(C4CC4)c3c2C)C[C@@H]1COC(C)=O [drawing 392],0.5,0.125,0.06
Cc1c(N2CCC(C(O)C(F)(F)F)C2)c(F)cc2c(=O)c(C(=O)O)cn(C3CC3)c12 (stereo not drawn) [drawing 329],0.5,0.06,0.03
COc1c(N2CCC(C(O)C(F)F)C2)c(F)cc2c(=O)c(C(=O)O)cn(C3CC3)c12 (stereo not drawn) [drawing 311],0.125,0.015,0.03
COc1c(N2CCC(CO)C2)c(F)cc2c(=O)c(C(=O)O)cn(C3CC3)c12 (stereo not drawn) [drawing 309],0.03,0.002,0.004
COc1c(N2C[C@@H]3C[C@@H](O)[C@@H](O)[C@@H]3C2)c(F)cc2c(=O)c(C(=O)O)cn(C3CC3)c12,0.25,0.015,0.06
CC(O)(CO)C1CCN(c2c(F)cc3c(=O)c(C(=O)O)cn(C4CC4)c3c2Cl)C1 (stereo not drawn) [drawing 339],0.125,0.16,0.03
COc1c(N2CC(CO)C3(CC3)C2)c(F)cc2c(=O)c(C(=O)O)cn(C3CC3)c12 (stereo not drawn) [drawing 420],0.06,0.008,0.008
COc1c(N2C[C@@H]3CC[C@@](O)(CO)[C@@H]3C2)c(F)cc2c(=O)c(C(=O)O)cn(C3CC3)c12 [drawing 449],0.5,0.06,0.06
COc1c(N2C[C@@H](CCO)[C@@H](CCO)C2)c(F)cc2c(=O)c(C(=O)O)cn(C3CC3)c12 [drawing 396],1,0.06,0.125
COC[C@@H]1CN(c2c(F)cc3c(=O)c(C(=O)O)cn(C4CC4)c3c2C)C[C@@H]1COC [drawing 388],2,0.25,0.125
Nc1nc(-n2cc(C(=O)O)c(=O)c3cc(F)c(N4CCC(C(O)CO)C4)cc32)c(F)cc1F (stereo not drawn) [drawing 325],0.06,0.004,0.015
Cc1c(N2CC(CO)C(C)(C)C2)c(F)cc2c(=O)c(C(=O)O)cn(C3CC3)c12 (stereo not drawn) [drawing 418],0.06,0.015,0.008
Nc1nc(-n2cc(C(=O)O)c(=O)c3cc(F)c(N4C[C@@H](O)[C@@H](O)C4)nc32)c(F)cc1F [drawing 380],0.25,0.008,0.125
Nc1nc(-n2cc(C(=O)O)c(=O)c3cc(F)c(N4C[C@@H](CO)[C@@H](CO)C4)c(Cl)c32)c(F)cc1F [drawing 383],0.5,0.008,0.25
Cc1c(N2C[C@@H](COC(=O)C(C)C)[C@@H](COC(=O)C(C)C)C2)c(F)cc2c(=O)c(C(=O)O)cn(C3CC3)c12 [drawing 394],8,2,2
CCC(=O)OC[C@@H]1CN(c2c(F)cc3c(=O)c(C(=O)O)cn(C4CC4)c3c2C)C[C@@H]1COC(=O)CC [drawing 393],1,0.5,0.03
Cc1c(N2CCC(C(F)(F)CO)C2)c(F)cc2c(=O)c(C(=O)O)cn(C3CC3)c12 (stereo not drawn) [drawing 335],0.125,0.015,0.03
O=C(O)c1cn(C2CC2)c2nc(N3CCC(C(O)C(F)F)C3)c(F)cc2c1=O (stereo not drawn) [drawing 314],0.125,0.008,0.016
Cc1c(N2CCC(C(O)C(F)F)C2)c(F)cc2c(=O)c(C(=O)O)cn(C3CC3)c12 (stereo not drawn) [drawing 310],0.06,0.008,0.008
Cc1c(N2CC(C(C)O)C(C)(C)C2)c(F)cc2c(=O)c(C(=O)O)cn(C3CC3)c12 (stereo not drawn) [drawing 423],0.25,0.06,0.015
COc1c(N2CCC(C)(C(O)CC(F)(F)F)C2)c(F)cc2c(=O)c(C(=O)O)cn(C3CC3)c12 (stereo not drawn) [drawing 374],0.125,0.03,0.03
